# pKi: −log10 of the molar value. Structures can show the parent of a compound that is named as a salt.
# Molecular target: adenosine A2A receptor (Homo sapiens, UniProt P29274)
# Assay: adenosine A2A receptor agonist assay (method of Murphree et al)
# Assay type: binding
# Conditions: method of L. J. Murphree et al, Molecular Pharmacology 61, 455-462 (2002)
# Description: The compounds of (A) activate the adenosine […] receptor, i.e. they act as A2A receptor agonists.
# Sequence of adenosine A2A receptor (P29274 whole entry): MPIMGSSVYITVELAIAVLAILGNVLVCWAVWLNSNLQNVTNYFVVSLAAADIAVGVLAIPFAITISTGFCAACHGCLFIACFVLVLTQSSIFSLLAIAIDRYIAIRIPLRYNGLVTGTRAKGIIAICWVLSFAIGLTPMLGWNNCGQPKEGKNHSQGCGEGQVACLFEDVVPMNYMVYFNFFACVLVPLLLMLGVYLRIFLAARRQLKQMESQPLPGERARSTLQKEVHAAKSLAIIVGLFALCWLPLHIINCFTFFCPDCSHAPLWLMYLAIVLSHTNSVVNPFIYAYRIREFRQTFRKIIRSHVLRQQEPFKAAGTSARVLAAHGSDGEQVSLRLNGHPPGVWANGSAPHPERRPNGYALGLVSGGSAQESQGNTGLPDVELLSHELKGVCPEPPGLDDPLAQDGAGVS
smiles,measurement,value
"COC(=O)N[C@H]1C[C@@H](n2cnc3c(NCC(c4ccccc4)c4ccccc4)nc(N4CC[C@@H](NC(=O)Nc5cccnc5)C4)nc32)[C@H](O)[C@@H]1O [Example 1, ((1S,2R,3S,4R)-4-{6-(2,2-Diphenyl-ethylamino)-2-[(R)-3-(3-pyridin-3-yl-ureido)-pyrrolidin-1-yl]-purin-9-yl}-2,3-dihydroxy-cyclopentyl)-carbamic acid methyl ester hydrochloride]",pKi,8.40
